“Also recorded” adds a separate entry of the source. Where two headings read alike, the source gives them in different places.
Columns and labels:
[1] = system: 6-hydroxydopamine (6-OHDA) rodent model of Parkinson's disease; assay: Dyskinesia: scoring of abnormal involuntary movements (limb, axial, orolingual) after repeated treatment in 6-OHDA lesioned rats; assay type: in vivo, Sprague-Dawley rats
Excerpt: The effects on motor performance and the development of dyskinesia following administration of deuterated L-DOPA derivatives with different deuterium enrichment at specific position of the side chain have been compared among each other and to L-DOPA in the 6-hydroxydopamine (6-OHDA) rodent model of Parkinson's disease.
Female Sprague-Dawley rats weighing approximately 225 g were housed on a 12-hour light/dark cycle and kept on standard laboratory diet and water ad libitum. The rats were lesioned by unilateral injection of the neurotoxin 6-OHDA. The lesion was validated by measuring the rotational activity after i.p. injection of 2.5 mg/kg D-amphetamine.
Dyskinesia was evaluated after repeated treatment by scoring the animals for abnormal involuntary movements. The rats were scored, by an observer blinded to the experimental design for limb, axial and orolingual involuntary movements.
The equipotent dose as percent of L-DOPA dose that caused the same effect on motor performance and dyskinesia observed following repeated administration of these doses is shown in Table 2.

[2] = system: 6-hydroxydopamine (6-OHDA) rodent model of Parkinson's disease; assay: Drug induced contralateral rotations (anti-Parkinson effect, motor performance) in unilaterally 6-OHDA lesioned rats; assay type: in vivo, Sprague-Dawley rats; conditions: 6-OHDA rats; for Motor Effect [% of L-DOPA effect]: at equipotent dose, contralateral rotations; for Equipotent Dose [% of L-DOPA dose]: dose causing the same effect on motor performance as L-DOPA; for effect on motor performance (in words): comparison between test items
striatal dopamine = conditions: compared to L-DOPA, prior art, cited from earlier work
Parkinson models = conditions: cited from earlier work
[3] = female, Sprague-Dawley, rat, in vivo
[4] = 6-OHDA rats, repeated administration, equipotent dose
[5] = repeated administration of equipotent doses, 6-OHDA rats

Row | Compound | Dyskinesia [% of dyskinesia caused by L-DOPA] [1, 3] | Motor Effect [% of L-DOPA effect] [2] | Equipotent Dose [% of L-DOPA dose] [2] | dyskinesia at equipotent dose (in words) [1, 4] | Dyskinesia [% of dyskinesia caused by L-DOPA] [1, 5] | effect on motor performance (in words) [2] | striatal dopamine levels / output (in words) (striatal dopamine; listed as α, β-D2-L-DOPA) | equi-effective dose compared to L-DOPA (Parkinson models; Parkinson models, literature) | motor activity (in words) (Parkinson models; compared to L-DOPA, several Parkinson models) | dyskinesia at equipotent dose (in words) ([1]; rat, in vivo) | striatal dopamine levels / output (in words) (striatal dopamine; listed as α, β,β-D3-L-DOPA) | striatal dopamine levels / output (in words) (striatal dopamine; listed as α,β,β-D3-L-DOPA)
1 | N[C@@H](Cc1ccc(O)c(O)c1)C(=O)O [Test Item A, L-2-amino-3-(3,4-dihydroxyphenyl) propionic acid] | 100% of dyskinesia caused by L-DOPA | 100% of L-DOPA effect | 100% of L-DOPA dose |  |  |  |  |  |  |  |  | 
2 | [2H][C@@H](c1ccc(O)c(O)c1)[C@]([2H])(N)C(=O)O [Test Item B, S/S-2-amino-2,3-dideutero-3-(3,4-dihydroxyphenyl) propionic acid] |  | 100% of L-DOPA effect | 30% of L-DOPA dose | not reduced in comparison to L-DOPA | 100% of dyskinesia caused by L-DOPA | significantly greater compared to α, β, β-D3-L-DOPA [C] and L-DOPA [A] | increase and prolong the output of striatal dopamine significantly more than L-DOPA; also recorded: highest striatal dopamine concentrations |  |  |  |  | 
3 | [2H]C([2H])(c1ccc(O)c(O)c1)[C@]([2H])(N)C(=O)O [Test Item C, L-2-amino-2,3,3-trideutero-3-(3,4-dihydroxyphenyl) propionic acid] | 50% of dyskinesia caused by L-DOPA | 100% of L-DOPA effect | 60% of L-DOPA dose |  |  |  |  | about 60% | improved motor activity compared to L-DOPA | significantly less dyskinesia than L-DOPA | increase and prolong the output of striatal dopamine significantly more than L-DOPA | higher longer-lasting striatal dopamine levels than L-DOPA
4 | L-2-amino-2,3,3*-trideutero-3-(3,4-dihydroxyphenyl) propionic acid [Test Item D] |  | 100% of L-DOPA effect | 35% of L-DOPA dose | reduction of dyskinesia as the triple-deuterated α, β, β-D3-L-DOPA [C] | 50% of dyskinesia caused by L-DOPA | motor effect equivalent to the di-deuterated α, β-D2-L-DOPA [B] |  |  |  |  |  | 

Source: patent US9763904B2, “Position-specific asymmetric deuterium enriched catecholamine derivatives and medicaments comprising said compounds” (Teva Pharmaceuticals International GmbH, priority 2013, dated 2017)
